Blank lines part the entries; values can stand above or below the compound they belong to. Active and inactive are the calls of the source. No cut-off for these calls is given here.
Tests used:
[1] = biological target: Protein kinase C beta type (Homo sapiens) (UniProt P05771); experiment: Inhibition of human PKCb2 at 18.6 nM by HotSpot assay relative to control
[2] = biological target: Tyrosine-protein kinase ABL2 (Homo sapiens) (UniProt P42684); experiment: Inhibition of human ABL2 at 18.6 nM by HotSpot assay relative to control
Tyrosine-protein kinase ABL2 (Homo sapiens), sequence (P42684 whole entry): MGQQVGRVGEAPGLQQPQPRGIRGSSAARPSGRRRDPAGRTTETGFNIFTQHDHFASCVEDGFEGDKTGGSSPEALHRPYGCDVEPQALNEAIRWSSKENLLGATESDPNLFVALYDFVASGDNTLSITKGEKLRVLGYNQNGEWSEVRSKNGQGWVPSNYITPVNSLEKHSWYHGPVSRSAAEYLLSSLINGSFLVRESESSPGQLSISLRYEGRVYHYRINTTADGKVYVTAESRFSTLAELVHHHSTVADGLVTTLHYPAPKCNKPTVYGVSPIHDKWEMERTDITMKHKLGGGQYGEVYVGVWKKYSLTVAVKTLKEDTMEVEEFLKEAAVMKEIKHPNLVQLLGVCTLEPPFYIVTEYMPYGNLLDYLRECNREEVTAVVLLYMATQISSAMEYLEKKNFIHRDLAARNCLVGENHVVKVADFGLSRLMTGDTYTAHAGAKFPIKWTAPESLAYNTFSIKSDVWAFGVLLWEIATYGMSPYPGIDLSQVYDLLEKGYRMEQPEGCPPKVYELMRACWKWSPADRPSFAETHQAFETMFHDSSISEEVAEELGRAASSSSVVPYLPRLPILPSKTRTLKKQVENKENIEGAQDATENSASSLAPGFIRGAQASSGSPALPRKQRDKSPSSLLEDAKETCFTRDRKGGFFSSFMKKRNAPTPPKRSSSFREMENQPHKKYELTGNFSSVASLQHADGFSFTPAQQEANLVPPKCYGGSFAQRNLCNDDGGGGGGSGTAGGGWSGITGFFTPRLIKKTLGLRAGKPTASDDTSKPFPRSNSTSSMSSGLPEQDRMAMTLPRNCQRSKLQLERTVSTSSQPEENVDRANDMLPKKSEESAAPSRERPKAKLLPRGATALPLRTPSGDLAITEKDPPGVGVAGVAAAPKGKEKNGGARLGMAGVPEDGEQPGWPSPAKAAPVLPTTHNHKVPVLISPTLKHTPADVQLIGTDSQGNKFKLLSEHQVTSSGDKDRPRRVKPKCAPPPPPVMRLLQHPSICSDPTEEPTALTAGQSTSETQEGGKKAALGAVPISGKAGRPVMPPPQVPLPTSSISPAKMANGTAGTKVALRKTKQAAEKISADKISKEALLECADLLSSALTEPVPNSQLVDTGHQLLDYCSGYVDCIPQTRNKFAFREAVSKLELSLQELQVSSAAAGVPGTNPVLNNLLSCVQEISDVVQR

[3] = biological target: Mitogen-activated protein kinase kinase kinase 20 (Homo sapiens) (UniProt Q9NYL2); experiment: Inhibition of human MLTK at 18.6 nM by HotSpot assay relative to control
[4] = biological target: Ribosomal protein S6 kinase beta-1 (Homo sapiens) (UniProt P23443); experiment: Inhibition of human RPS6KB1 at 18.6 nM by HotSpot assay relative to control
Ribosomal protein S6 kinase beta-1 (Homo sapiens), sequence (P23443 whole entry, looked up): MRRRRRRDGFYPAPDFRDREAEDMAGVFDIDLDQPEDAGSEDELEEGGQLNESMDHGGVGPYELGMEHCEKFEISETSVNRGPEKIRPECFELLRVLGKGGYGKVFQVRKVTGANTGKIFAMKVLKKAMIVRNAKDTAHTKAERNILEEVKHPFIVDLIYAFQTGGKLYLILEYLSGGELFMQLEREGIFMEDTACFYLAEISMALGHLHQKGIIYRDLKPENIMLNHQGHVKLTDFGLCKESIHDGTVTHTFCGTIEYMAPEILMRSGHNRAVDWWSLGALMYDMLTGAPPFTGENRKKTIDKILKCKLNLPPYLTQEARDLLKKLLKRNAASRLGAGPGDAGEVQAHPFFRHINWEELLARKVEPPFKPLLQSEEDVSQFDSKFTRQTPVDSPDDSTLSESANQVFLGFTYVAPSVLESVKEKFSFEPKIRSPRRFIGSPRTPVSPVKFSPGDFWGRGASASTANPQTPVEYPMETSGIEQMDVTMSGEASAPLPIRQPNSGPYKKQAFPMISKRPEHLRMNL

[5] = biological target: RAF proto-oncogene serine/threonine-protein kinase (Homo sapiens) (UniProt P04049); experiment: Inhibition of human RAF1 at 18.6 nM by HotSpot assay relative to control
RAF proto-oncogene serine/threonine-protein kinase (Homo sapiens), sequence (P04049 whole entry): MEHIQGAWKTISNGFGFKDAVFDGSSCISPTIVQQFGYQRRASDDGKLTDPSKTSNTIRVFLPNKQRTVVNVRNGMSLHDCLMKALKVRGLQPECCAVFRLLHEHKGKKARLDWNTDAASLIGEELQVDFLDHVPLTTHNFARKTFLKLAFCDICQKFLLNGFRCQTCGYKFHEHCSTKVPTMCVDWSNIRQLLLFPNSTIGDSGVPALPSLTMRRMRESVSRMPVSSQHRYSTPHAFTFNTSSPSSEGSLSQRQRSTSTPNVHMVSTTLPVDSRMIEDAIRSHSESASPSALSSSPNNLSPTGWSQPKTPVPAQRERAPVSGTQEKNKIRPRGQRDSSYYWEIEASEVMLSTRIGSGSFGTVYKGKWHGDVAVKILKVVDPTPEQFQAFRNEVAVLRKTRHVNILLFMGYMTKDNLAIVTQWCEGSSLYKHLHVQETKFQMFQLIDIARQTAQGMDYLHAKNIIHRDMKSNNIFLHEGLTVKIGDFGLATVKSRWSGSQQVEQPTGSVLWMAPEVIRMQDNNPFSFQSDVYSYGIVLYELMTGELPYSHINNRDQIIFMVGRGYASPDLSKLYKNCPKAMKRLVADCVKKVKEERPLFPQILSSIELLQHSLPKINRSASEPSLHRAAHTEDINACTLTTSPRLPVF

[6] = biological target: Dual specificity protein kinase CLK2 (Homo sapiens) (UniProt P49760); experiment: Inhibition of human CLK2 at 18.6 nM by HotSpot assay relative to control
Dual specificity protein kinase CLK2 (Homo sapiens), sequence (P49760 whole entry, looked up): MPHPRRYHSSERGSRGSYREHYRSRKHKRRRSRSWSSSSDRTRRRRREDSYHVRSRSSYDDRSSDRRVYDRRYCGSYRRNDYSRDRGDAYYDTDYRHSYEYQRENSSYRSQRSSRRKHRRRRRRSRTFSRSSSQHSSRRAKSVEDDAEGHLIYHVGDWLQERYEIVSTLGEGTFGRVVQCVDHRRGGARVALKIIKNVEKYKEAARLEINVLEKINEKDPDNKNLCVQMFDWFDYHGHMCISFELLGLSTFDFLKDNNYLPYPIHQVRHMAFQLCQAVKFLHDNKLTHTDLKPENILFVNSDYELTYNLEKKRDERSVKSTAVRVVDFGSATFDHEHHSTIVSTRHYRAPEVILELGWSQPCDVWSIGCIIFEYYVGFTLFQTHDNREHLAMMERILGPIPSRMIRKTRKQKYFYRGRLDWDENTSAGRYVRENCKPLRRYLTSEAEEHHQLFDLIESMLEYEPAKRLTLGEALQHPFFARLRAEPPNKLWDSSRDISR

[7] = test system: CHO-K1; experiment: Inhibition of Insulin receptor M1153L mutant (unknown origin) transfected in CHO-K1 cell lysate at 10 uM for 30 mins on ice followed by insulin stimulation for 10 mins by Western blot analysis; type: subcellular; details: Homo sapiens, time 40.0 min
[8] = biological target: T1, Ephrin type-B receptor 2 (Homo sapiens) (UniProt P29323); experiment: Inhibition of human EPHB2 at 1.82 nM by HotSpot assay relative to control
T1 sequence (whole entry): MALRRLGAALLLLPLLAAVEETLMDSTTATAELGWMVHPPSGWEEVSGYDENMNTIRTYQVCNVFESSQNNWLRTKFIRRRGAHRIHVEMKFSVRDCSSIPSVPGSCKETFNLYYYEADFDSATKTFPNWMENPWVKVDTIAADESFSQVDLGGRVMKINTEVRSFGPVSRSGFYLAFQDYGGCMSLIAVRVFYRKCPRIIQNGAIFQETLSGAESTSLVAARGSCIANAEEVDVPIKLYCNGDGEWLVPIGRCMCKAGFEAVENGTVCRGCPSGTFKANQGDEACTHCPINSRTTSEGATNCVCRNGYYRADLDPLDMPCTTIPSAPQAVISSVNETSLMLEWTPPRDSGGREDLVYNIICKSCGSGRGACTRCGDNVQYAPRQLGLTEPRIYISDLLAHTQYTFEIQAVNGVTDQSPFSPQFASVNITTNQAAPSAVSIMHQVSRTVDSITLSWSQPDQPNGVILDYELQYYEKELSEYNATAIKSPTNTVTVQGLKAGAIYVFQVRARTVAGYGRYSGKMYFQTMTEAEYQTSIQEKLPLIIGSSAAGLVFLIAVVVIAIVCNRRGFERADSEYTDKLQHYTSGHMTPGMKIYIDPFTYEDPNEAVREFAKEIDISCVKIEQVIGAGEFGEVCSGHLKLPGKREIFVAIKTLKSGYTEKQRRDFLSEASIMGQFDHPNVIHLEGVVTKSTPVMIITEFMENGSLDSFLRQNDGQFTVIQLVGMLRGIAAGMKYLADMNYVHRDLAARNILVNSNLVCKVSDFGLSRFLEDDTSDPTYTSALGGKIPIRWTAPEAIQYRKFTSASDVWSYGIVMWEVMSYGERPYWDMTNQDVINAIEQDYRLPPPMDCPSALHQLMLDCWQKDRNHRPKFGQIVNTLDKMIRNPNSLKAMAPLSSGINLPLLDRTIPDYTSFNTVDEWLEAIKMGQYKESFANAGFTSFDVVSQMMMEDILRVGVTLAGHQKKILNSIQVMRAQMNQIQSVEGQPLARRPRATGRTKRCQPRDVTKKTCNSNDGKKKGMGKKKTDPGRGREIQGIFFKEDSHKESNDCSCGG

[9] = biological target: Mitogen-activated protein kinase 8 (Homo sapiens) (UniProt P45983); experiment: Inhibition of human JNK1 at 1.82 nM by HotSpot assay relative to control
[10] = biological target: G protein-coupled receptor kinase 4 (Homo sapiens) (UniProt P32298); experiment: Inhibition of human GRK4 at 1.82 nM by HotSpot assay relative to control
G protein-coupled receptor kinase 4 (Homo sapiens), sequence (P32298 whole entry, looked up): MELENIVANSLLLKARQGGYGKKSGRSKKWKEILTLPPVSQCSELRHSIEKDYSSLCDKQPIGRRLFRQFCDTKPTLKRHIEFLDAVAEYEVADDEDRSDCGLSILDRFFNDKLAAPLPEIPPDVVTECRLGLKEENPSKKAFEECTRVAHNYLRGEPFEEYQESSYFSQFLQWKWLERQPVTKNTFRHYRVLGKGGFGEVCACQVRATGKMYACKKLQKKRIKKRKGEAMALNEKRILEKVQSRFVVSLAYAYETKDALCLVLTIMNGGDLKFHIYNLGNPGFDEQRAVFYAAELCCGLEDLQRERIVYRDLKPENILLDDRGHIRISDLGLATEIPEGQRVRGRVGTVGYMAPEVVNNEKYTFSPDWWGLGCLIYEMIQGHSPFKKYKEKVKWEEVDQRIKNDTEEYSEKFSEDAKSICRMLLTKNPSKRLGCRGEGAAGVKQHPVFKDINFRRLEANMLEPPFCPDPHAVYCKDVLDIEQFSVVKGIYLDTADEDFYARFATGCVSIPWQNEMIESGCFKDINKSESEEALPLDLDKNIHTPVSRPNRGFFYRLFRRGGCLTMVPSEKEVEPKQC

[11] = biological target: Mitogen-activated protein kinase 9 (Homo sapiens) (UniProt P45984); experiment: Inhibition of human JNK2 at 1.82 nM by HotSpot assay relative to control
[12] = biological target: Leukocyte tyrosine kinase receptor (Homo sapiens) (UniProt P29376); experiment: Inhibition of human LTK at 1.82 nM by HotSpot assay relative to control
[13] = biological target: Phosphorylase b kinase gamma catalytic chain, skeletal muscle/heart isoform (Homo sapiens) (UniProt Q16816); experiment: Inhibition of human PHKg1 at 1.82 nM by HotSpot assay relative to control
Phosphorylase b kinase gamma catalytic chain, skeletal muscle/heart isoform (Homo sapiens), sequence (Q16816 whole entry, looked up, canonical isoform): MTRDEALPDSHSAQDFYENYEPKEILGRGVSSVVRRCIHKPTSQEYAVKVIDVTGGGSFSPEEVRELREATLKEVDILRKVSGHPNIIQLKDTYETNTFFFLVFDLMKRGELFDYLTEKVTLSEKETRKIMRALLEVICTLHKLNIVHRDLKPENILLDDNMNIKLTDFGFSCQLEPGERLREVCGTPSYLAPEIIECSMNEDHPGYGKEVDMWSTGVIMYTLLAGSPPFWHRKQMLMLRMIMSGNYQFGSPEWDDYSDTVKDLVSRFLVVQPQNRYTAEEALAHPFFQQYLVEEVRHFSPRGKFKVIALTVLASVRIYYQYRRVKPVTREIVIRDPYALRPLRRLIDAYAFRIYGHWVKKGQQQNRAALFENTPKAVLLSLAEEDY

[14] = biological target: T2, Phosphorylase b kinase gamma catalytic chain, liver/testis isoform (Homo sapiens) (UniProt P15735); experiment: Inhibition of human PHKg2 at 1.82 nM by HotSpot assay relative to control
T2 sequence (whole entry): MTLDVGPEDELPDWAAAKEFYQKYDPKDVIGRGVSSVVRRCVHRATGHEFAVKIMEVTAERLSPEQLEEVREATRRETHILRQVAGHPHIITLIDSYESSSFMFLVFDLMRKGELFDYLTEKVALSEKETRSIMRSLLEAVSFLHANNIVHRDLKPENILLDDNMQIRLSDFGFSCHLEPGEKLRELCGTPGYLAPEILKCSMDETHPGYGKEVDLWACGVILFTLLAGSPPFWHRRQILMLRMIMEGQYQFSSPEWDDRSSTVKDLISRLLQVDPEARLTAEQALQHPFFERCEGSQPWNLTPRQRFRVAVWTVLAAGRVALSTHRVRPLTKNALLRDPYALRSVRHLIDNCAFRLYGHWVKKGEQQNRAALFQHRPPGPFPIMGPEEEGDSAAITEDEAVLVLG

[15] = biological target: Tyrosine-protein kinase Fyn (Homo sapiens) (UniProt P06241); experiment: Inhibition of human FYN at 1.82 nM by HotSpot assay relative to control
Tyrosine-protein kinase Fyn (Homo sapiens), sequence (P06241 2-537 limits assumed): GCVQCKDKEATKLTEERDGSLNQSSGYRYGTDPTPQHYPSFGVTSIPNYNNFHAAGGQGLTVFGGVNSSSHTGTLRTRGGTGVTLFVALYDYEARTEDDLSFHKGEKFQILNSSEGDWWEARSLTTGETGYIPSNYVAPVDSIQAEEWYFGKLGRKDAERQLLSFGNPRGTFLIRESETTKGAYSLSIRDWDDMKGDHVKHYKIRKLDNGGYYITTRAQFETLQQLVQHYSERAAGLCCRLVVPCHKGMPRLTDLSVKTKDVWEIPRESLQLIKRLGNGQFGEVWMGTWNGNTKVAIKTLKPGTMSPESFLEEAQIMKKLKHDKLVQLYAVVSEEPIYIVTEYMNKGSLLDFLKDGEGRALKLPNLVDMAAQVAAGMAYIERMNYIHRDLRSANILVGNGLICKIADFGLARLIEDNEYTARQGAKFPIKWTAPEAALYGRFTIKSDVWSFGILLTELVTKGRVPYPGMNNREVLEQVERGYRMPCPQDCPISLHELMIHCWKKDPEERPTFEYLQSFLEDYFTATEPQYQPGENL

[16] = biological target: Angiopoietin-1 receptor (Homo sapiens) (UniProt Q02763); experiment: Inhibition of human TEK at 1.82 nM by HotSpot assay relative to control

Protein kinase C beta type (Homo sapiens), sequence (P05771 2-671 limits assumed): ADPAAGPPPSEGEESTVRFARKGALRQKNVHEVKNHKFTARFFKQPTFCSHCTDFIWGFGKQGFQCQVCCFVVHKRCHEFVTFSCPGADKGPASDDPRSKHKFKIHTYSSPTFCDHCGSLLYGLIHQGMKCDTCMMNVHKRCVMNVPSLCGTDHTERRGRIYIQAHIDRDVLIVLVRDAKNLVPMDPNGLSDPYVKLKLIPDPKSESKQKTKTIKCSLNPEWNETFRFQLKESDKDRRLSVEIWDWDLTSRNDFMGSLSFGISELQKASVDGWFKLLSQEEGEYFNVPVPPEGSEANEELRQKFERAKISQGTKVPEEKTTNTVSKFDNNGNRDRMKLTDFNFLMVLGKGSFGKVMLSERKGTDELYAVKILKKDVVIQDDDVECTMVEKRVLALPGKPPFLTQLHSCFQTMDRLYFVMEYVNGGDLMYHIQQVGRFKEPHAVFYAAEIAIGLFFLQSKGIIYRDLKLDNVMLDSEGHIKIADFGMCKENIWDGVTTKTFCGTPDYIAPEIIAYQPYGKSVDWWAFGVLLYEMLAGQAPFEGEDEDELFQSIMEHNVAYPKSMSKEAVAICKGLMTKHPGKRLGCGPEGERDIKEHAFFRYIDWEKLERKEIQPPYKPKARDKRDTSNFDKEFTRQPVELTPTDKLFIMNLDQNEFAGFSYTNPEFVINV

- inhibition [1]: -7.92%
- inhibition [2]: -0.1%
- inhibition [3]: -2.34%
- inhibition [4]: -4.9%
- inhibition [5]: -5.79%
- inhibition [6]: 4.4%
Compound: C[C@]1(O)C[C@@H](c2nc(-c3ccc4ccc(-c5ccccc5)nc4c3)c3c(N)nccn32)C1

Compound: Oc1n[nH]c2nnc(-c3c(-c4ccccc4)nn4ccccc34)cc12
- inhibition [7]: inactive

- inhibition [8]: -7.51%
- inhibition [9]: -1.19%
- inhibition [10]: 0.72%
- inhibition [11]: -2.41%
- inhibition [12]: -7.41%
- inhibition [13]: 2.68%
- inhibition [14]: -4.64%
- inhibition [15]: -6.23%
- inhibition [16]: 4%
Compound: C[C@@]1(C(=O)Nc2ccc(F)nc2)CCCN1c1nc(Nc2cc(C3CC3)n[nH]2)c2cccn2n1

— ChEMBL document CHEMBL5653615 (J Biol Chem, 2013)
